According to ChEMBL document CHEMBL1135392, “Rational determination of transfer free energies of small drugs across the water-oil interface” (J Med Chem, 2002):

What was measured:
Conditions in all cases: octanol/water
[1] = Partition coefficient (logP)
[2] = Partition coefficient (logP) (dodecane)
[3] = Partition coefficient across water-dodecane interface by statistical simulation

Row | Structure (SMILES) | logP [1] | logP [2] | logP [3]
1 | Oc1cccc(Cl)c1 | – | -0.34 | –
2 | CN1C(=O)Cc2ccccc21 | 0.63 | -0.9 | –
3 | Brc1cnc2ccccc2c1 | 3.11 | 2.59 | –
4 | CC(=O)Nc1ccccc1 [ACETANILIDE] | 1.13 | -1.76 | –
5 | c1ccc2nc3ccccc3cc2c1 [ACRIDINE] | 2.98 | 2.32 | –
6 | COc1ccccc1 [ANISOLE] | – | 2.06 | –
7 | Cc1cc(=O)n(-c2ccccc2)n1C [ANTIPYRINE] | – | -2.52 | -2.5
8 | NC(=O)c1ccccc1 [BENZAMIDE] | 0.67 | -2.67 | –
9 | O=[N+]([O-])c1ccccc1 [NITROBENZENE] | 1.84 | 1.43 | –
10 | Oc1ccccc1 [PHENOL] | 1.5 | -1.04 | –

Continued, in another order:

Row | logP [1] | logP [2] | Structure (SMILES) | logP [3]
11 | 0.33 | -1.56 | CC(=O)c1ccc(S(C)(=O)=O)cc1 | –
12 | -3.02 | < -3 | OC[C@H]1O[C@H](O)[C@H](O)[C@@H](O)[C@@H]1O | –
13 | 1.56 | 0.94 | CC(=O)c1ccccc1 [ACETOPHENONE] | –
14 | 0.32 | -2.72 | NC(=O)c1ccccc1N [ANTHRANILAMIDE] | –
15 | 0.33 | -3.14 | NS(=O)(=O)c1ccccc1 [BENZENESULFONAMIDE] | –
16 | – | -0.77 | OCc1ccccc1 [BENZYL ALCOHOL] | –
17 | 1.07 | -1.95 | O=C1Cc2ccccc2N1 [OXINDOLE] | –
18 | 1.35 | 0.51 | c1ccc2nccnc2c1 [QUINOXALINE] | –
